# Measurements reported in patent US8063065B2, “Azaindazole compounds as CCR1 receptor antagonists” (Boehringer Ingelheim International GmbH, priority 2008, dated 2011).
# Molecular target: T1, CCR1 (Homo sapiens, UniProt P32246)
# T1 sequence (P32246 1-355): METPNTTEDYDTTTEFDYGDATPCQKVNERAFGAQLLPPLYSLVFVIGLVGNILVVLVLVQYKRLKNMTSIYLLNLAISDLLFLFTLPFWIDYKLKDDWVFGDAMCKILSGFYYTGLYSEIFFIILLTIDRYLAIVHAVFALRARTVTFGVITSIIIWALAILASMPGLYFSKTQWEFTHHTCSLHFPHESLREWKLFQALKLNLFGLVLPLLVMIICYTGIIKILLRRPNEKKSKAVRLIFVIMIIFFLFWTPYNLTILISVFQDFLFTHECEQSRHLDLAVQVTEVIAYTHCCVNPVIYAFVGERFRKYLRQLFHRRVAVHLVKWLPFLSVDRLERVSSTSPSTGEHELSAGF
# Test: Method B: calcium flux in CCR1 transfected cells (Calcium 4 dye, […] FDSS6000), block of the CCR1/MIP-1α interaction
# Assay type: cell-based
# Settings: Method B: Calcium 4 dye, MIP-1alpha at EC80
# Protocol: Compounds are assessed for the ability to block the interaction of CCR1 and MIP-1α in a functional cellular assay measuring calcium flux in CCR1 transfected cells.
# Method B: Non-adherent cells purchased from Chemicon Corporation (HTS005C), stably expressing recombinant CCR1 and G-alpha-16 are grown in RPMI 1640 medium (Mediatech 10-080-CM) supplemented with 10% FBS, 0.4 mg/mL Geneticin and penicillin/streptomycin. On the day of the assay, the cells are loaded with Calcium 4 dye (Molecular Devices R7448) with Probenecid (Invitrogen P346400) at 8E5 cells/mL for 1 hour at room temperature. After 1 hour, they are seeded in a 384-well tissue culture-treated plate at a density of 20,000 cells/well. Appropriately diluted test compound is added to the well to achieve a top concentration of 3,000 nM (diluted 4-fold with 10 doses total). The final concentration of DMSO is 1%. The buffer is HBSS (Invitrogen 14025) with 20 mM HEPES at pH 7.4. The cells incubate 30 minutes at 37 C and then 30 minutes at room temperature. The plates are transferred to the […] FDSS6000 where MIP-1alpha in 1% BSA is added at the EC80 final concentration. All plates must be read within 4 hours of the start of dye-loading. Wells+/−MIP-1alpha containing diluted DMSO instead of compound serve as the controls. Data are analyzed using Activity Base software.
row,Compound,IC50 [nM]
1,"CS(=O)(=O)c1cc([C@H](CC(O)CO)NC(=O)c2cncc3c2cnn3-c2ccc(F)cc2)ccn1 (single isomer, unassigned)",11
2,"CC(C)(O)CNS(=O)(=O)c1ccc(CNC(=O)c2cncc3c2cnn3-c2ccc(F)cc2)cc1 [1-(4-Fluorophenyl)-1H-pyrazolo[3,4-c]pyridine-4-carboxylic acid 4-(2-hydroxy-2-methyl-propylsulfamoyl)-benzylamide]",1
3,"CS(=O)(=O)n1ccc2c(CNC(=O)c3cncc4c3cnn4-c3ccc(F)cc3)ccnc21 [1-(4-Fluorophenyl)-1H-pyrazolo[3,4-c]pyridine-4-carboxylic acid (1-methanesulfonyl-1H-pyrrolo[2,3-b]pyridin-4-ylmethyl)-amide]",3
4,"CS(=O)(=O)c1cc(CNC(=O)c2cncc3c2cnn3-c2ccc(F)cc2)cc(Br)n1 [1-(4-Fluorophenyl)-1H-pyrazolo[3,4-c]pyridine-4-carboxylic acid (2-bromo-6-methanesulfonyl-pyridin-4-ylmethyl)-amide]",1
5,"O=C(NCc1cnc(Br)s1)c1cncc2c1cnn2-c1ccc(F)cc1 [1-(4-Fluorophenyl)-1H-pyrazolo[3,4-c]pyridine-4-carboxylic acid (2-bromo-thiazol-5-ylmethyl)-amide]",25
6,"COc1cc(CNC(=O)c2cncc3c2cnn3-c2ccc(F)cc2)cc(S(C)(=O)=O)n1 [1-(4-Fluorophenyl)-1H-pyrazolo[3,4-c]pyridine-4-carboxylic acid (2-methanesulfonyl-6-methoxy-pyridin-4-ylmethyl)-amide]",1
7,"Cc1cc(CNC(=O)c2cncc3c2cnn3-c2ccc(F)cc2)cc(S(C)(=O)=O)n1 [1-(4-Fluorophenyl)-1H-pyrazolo[3,4-c]pyridine-4-carboxylic acid (2-methanesulfonyl-6-methyl-pyridin-4-ylmethyl)-amide]",5
8,"CS(=O)(=O)c1nc(CNC(=O)c2cncc3c2cnn3-c2ccc(F)cc2)cs1 [1-(4-Fluorophenyl)-1H-pyrazolo[3,4-c]pyridine-4-carboxylic acid (2-methanesulfonyl-thiazol-4-ylmethyl)-amide]",29
9,"CS(=O)(=O)c1ncc(CNC(=O)c2cncc3c2cnn3-c2ccc(F)cc2)s1 [1-(4-Fluorophenyl)-1H-pyrazolo[3,4-c]pyridine-4-carboxylic acid (2-methanesulfonyl-thiazol-5-ylmethyl)-amide]",17
10,"O=C(NCc1cnc(N2CCOCC2)nc1)c1cncc2c1cnn2-c1ccc(F)cc1 [1-(4-Fluorophenyl)-1H-pyrazolo[3,4-c]pyridine-4-carboxylic acid (2-morpholin-4-yl-pyrimidin-5-ylmethyl)-amide]",8
11,"O=C(NCc1cnc(N2CCOCC2)s1)c1cncc2c1cnn2-c1ccc(F)cc1 [1-(4-Fluorophenyl)-1H-pyrazolo[3,4-c]pyridine-4-carboxylic acid (2-morpholin-4-yl-thiazol-5-ylmethyl)-amide]",16
12,"O=C(NCc1cc(Br)cs1)c1cncc2c1cnn2-c1ccc(F)cc1 [1-(4-Fluorophenyl)-1H-pyrazolo[3,4-c]pyridine-4-carboxylic acid (4-bromo-thiophen-2-ylmethyl)-amide]",7
13,"CS(=O)(=O)c1csc(CNC(=O)c2cncc3c2cnn3-c2ccc(F)cc2)c1 [1-(4-Fluorophenyl)-1H-pyrazolo[3,4-c]pyridine-4-carboxylic acid (4-methanesulfonyl-thiophen-2-ylmethyl)-amide]",5
14,"O=C(NCc1ccc(Br)s1)c1cncc2c1cnn2-c1ccc(F)cc1 [1-(4-Fluorophenyl)-1H-pyrazolo[3,4-c]pyridine-4-carboxylic acid (5-bromo-thiophen-2-ylmethyl)-amide]",19
15,"CS(=O)(=O)c1ccc(CNC(=O)c2cncc3c2cnn3-c2ccc(F)cc2)s1 [1-(4-Fluorophenyl)-1H-pyrazolo[3,4-c]pyridine-4-carboxylic acid (5-methanesulfonyl-thiophen-2-ylmethyl)-amide]",5
16,"CS(=O)(=O)c1cc(CNC(=O)c2cncc3c2cnn3-c2ccc(F)cc2)cc(=O)[nH]1 [1-(4-Fluorophenyl)-1H-pyrazolo[3,4-c]pyridine-4-carboxylic acid (6-methanesulfonyl-2-oxo-1,2-dihydropyridin-4-ylmethyl)-amide]",17
17,"CC[C@H](NC(=O)c1cncc2c1cnn2-c1ccc(F)cc1)c1ccccn1 [1-(4-Fluorophenyl)-1H-pyrazolo[3,4-c]pyridine-4-carboxylic acid ((S)-1-pyridin-2-yl-propyl)-amide]",23
18,"C=CC[C@H](NC(=O)c1cncc2c1cnn2-c1ccc(F)cc1)c1ccncc1 [1-(4-Fluorophenyl)-1H-pyrazolo[3,4-c]pyridine-4-carboxylic acid ((S)-1-pyridin-4-yl-but-3-enyl)-amide]",32
19,"CC[C@H](NC(=O)c1cncc2c1cnn2-c1ccc(F)cc1)c1ccncc1 [1-(4-Fluorophenyl)-1H-pyrazolo[3,4-c]pyridine-4-carboxylic acid ((S)-1-pyridin-4-yl-propyl)-amide]",6
20,"CC[C@H](NC(=O)c1cncc2c1cnn2-c1ccc(F)cc1)c1ccnc(N(C)CCO)c1 [1-(4-Fluorophenyl)-1H-pyrazolo[3,4-c]pyridine-4-carboxylic acid ((S)-1-{2-[(2-hydroxy-ethyl)-methyl-amino]-pyridin-4-yl}-propyl)-amide]",2
21,"CC[C@H](NC(=O)c1cncc2c1cnn2-c1ccc(F)cc1)c1ccnc(N(C)CCOC)c1 [1-(4-Fluorophenyl)-1H-pyrazolo[3,4-c]pyridine-4-carboxylic acid ((S)-1-{2-[(2-methoxy-ethyl)-methyl-amino]-pyridin-4-yl}-propyl)-amide]",1
22,"CCC(NC(=O)c1cncc2c1cnn2-c1ccc(F)cc1)C1CCN(C(C)=O)CC1 (stereo not drawn) [1-(4-Fluorophenyl)-1H-pyrazolo[3,4-c]pyridine-4-carboxylic acid [1-(1-acetyl-piperidin-4-yl)-propyl]-amide]",10
23,"CCC(NC(=O)c1cncc2c1cnn2-c1ccc(F)cc1)C1CCN(C(N)=O)CC1 (stereo not drawn) [1-(4-Fluorophenyl)-1H-pyrazolo[3,4-c]pyridine-4-carboxylic acid [1-(1-carbamoyl-piperidin-4-yl)-propyl]-amide]",16
24,"CCC(NC(=O)c1cncc2c1cnn2-c1ccc(F)cc1)C1CCCN(S(C)(=O)=O)C1 (stereo not drawn) [1-(4-Fluorophenyl)-1H-pyrazolo[3,4-c]pyridine-4-carboxylic acid [1-(1-methanesulfonyl-piperidin-3-yl)-propyl]-amide]",2
25,"CCC(NC(=O)c1cncc2c1cnn2-c1ccc(F)cc1)C1CCN(S(C)(=O)=O)CC1 (stereo not drawn) [1-(4-Fluorophenyl)-1H-pyrazolo[3,4-c]pyridine-4-carboxylic acid [1-(1-methanesulfonyl-piperidin-4-yl)-propyl]-amide]",2
26,"CCC(CC)(NC(=O)c1cncc2c1cnn2-c1ccc(F)cc1)c1ccnc(Br)c1 [1-(4-Fluorophenyl)-1H-pyrazolo[3,4-c]pyridine-4-carboxylic acid [1-(2-bromo-pyridin-4-yl)-1-ethyl-propyl]-amide]",29
27,"CC(C)(NC(=O)c1cncc2c1cnn2-c1ccc(F)cc1)c1ccnc(Br)c1 [1-(4-Fluorophenyl)-1H-pyrazolo[3,4-c]pyridine-4-carboxylic acid [1-(2-bromo-pyridin-4-yl)-1-methyl-ethyl]-amide]",14
